Data: ChEMBL document CHEMBL1201862, “PubChem BioAssay data set” (2004)
Activity calls are given as the source filed them.

What was measured:
[1] = biological target: Beta-2 adrenergic receptor (Homo sapiens, UniProt P07550); test: beta2AR agonists driving receptor internalization, dose response, cell-based, FAP fluorogen, flow cytometry, cherry pick 1 (AID 588763); assay type: functional
[2] = biological target: Troponin, cardiac muscle (Homo sapiens, UniProt P19429+P45379+P63316); test: Fluorescence-based biochemical high throughput dose response assay for activators of the calcium sensitivity of cardiac Regulated Thin Filaments (RTF). [Related pubchem assays (depositor defined):AID493008, AID493018, AID504382, AID504383]; assay type: protein-complex assay
[3] = NIH-3T3 fibroblast cytotoxicity, dose response, cytotoxicity control, cell-based, fluorescence, Alamar Blue, secondary assay (AID 2327); assay type: functional;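 also: NIH-3T3 mouse fibroblasts cultured with fluconazole at 8 µg/mL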
[4] = biological target: T1, Serine/threonine-protein phosphatase (Candida dubliniensis (strain CD36 / CBS 7987 / NCPF 3949 / NRRLY-17841) (Yeast), UniProt B9W6M3); test: calcineurin pathway inhibitors in yeast reporter, dose response, S. cerevisiae, CDRE-lacZ, luminescence, secondary (AID 2388); assay type: functional, cell-based;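 also: yeast reporter cells carrying a calcineurin-responsive lacZ construct stimulated with calcium chloride; luminescent beta-galactosidase reporter signal in whole cells rather than isolated phosphatase activity; potency for inhibition where a drop in reporter signal means calcineurin blockade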
T1 sequence (B9W6M3 whole entry): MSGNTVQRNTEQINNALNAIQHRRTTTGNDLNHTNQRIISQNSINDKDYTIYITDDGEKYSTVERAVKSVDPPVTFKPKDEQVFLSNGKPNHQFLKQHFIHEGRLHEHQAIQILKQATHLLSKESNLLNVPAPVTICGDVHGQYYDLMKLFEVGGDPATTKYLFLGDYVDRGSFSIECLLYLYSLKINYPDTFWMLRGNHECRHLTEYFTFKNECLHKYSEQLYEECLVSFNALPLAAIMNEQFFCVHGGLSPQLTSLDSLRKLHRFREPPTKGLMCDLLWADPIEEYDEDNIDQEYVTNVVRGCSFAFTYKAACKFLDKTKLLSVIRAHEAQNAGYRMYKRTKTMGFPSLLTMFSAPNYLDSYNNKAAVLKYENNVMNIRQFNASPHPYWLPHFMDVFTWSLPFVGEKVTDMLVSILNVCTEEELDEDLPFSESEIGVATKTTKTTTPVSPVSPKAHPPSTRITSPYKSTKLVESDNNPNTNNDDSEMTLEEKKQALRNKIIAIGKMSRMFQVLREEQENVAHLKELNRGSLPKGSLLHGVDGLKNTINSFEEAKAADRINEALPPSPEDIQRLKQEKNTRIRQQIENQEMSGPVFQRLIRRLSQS

[5] = C. albicans growth with fluconazole, confirmation, fluorescence, retest (AID 2467); assay type: functional, cell-based
[6] = biological target: ATP-dependent molecular chaperone HSP82 (Candida albicans (strain WO-1) (Yeast), UniProt C4YTQ8); test: loss of DOC-induced GRE-beta-galactosidase reporter signal, dose response, Hsp90 inhibitor project, S. cerevisiae, luminescence (AID 2400); assay type: functional, cell-based;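 also: beta-galactosidase luminescence from glucocorticoid response element reporter as proxy for Hsp90 function; inhibitor potency where signal loss means Hsp90 inhibition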
Sequence of ATP-dependent molecular chaperone HSP82 (C4YTQ8 whole entry): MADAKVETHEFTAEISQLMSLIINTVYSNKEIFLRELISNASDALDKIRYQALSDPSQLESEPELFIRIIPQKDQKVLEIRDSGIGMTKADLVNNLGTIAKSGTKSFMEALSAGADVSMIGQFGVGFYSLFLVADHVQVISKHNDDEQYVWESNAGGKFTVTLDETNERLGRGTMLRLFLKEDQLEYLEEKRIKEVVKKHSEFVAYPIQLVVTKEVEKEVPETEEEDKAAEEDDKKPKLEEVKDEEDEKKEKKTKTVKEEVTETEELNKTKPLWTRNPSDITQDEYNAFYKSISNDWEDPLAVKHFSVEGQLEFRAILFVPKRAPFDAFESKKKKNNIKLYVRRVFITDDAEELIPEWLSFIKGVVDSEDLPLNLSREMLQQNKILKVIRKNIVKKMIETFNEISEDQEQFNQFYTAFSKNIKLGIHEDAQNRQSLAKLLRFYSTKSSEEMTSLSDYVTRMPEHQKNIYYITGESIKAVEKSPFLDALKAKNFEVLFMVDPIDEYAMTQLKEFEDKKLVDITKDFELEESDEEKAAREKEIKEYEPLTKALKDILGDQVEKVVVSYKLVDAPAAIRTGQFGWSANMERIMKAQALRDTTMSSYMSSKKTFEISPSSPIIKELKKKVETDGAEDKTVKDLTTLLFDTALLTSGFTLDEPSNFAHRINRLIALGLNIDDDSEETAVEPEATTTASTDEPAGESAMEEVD

[7] = biological target: FAD-linked sulfhydryl oxidase ALR (Homo sapiens, UniProt P55789); test: inhibitors of human ALR sulfhydryl oxidase, dose response, biochemical, H2O2 detection, luminescence, cherry-pick (AID 493248)
Sequence of FAD-linked sulfhydryl oxidase ALR (P55789 whole entry): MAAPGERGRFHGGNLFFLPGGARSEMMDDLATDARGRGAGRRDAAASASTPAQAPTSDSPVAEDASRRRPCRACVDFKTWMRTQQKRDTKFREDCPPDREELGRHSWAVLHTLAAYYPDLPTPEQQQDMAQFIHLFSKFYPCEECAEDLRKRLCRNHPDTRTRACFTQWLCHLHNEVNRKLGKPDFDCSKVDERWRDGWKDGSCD

[8] = biological target: G-protein coupled receptor 55 (Homo sapiens, UniProt Q9Y2T6); test: GPR55 antagonists blocking LPI-driven arrestin recruitment, primary screen, imaging, U2OS, beta-arrestin-GFP, LPI agonist (AID 2013); assay type: functional;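 also: antagonist potency measured as reduced agonist-driven arrestin aggregation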
Sequence of G-protein coupled receptor 55 (Q9Y2T6 whole entry): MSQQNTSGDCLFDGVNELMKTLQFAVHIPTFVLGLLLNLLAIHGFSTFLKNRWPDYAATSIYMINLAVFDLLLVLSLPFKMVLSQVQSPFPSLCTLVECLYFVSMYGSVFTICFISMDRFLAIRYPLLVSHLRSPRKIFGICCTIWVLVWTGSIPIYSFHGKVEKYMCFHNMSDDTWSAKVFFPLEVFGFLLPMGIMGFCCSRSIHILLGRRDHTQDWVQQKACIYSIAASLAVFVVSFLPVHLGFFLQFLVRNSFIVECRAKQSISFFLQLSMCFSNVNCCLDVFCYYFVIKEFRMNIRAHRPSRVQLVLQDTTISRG

[9] = cytotoxicity toward DRD oncogenic fibroblasts, dose response, cell-based, non-viral oncogenic, luminescence (AID 1934); assay type: functional; settings: Homo sapiens
[10] = test system: BJ; test: cells; assay type: functional, cell-based; settings: Homo sapiens
[11] = insulin promoter down-regulators in MIN6 cells, imaging, high-content screening, mouse beta cells (AID 1628); assay type: functional
[12] = test system: BJ; test: cytotoxicity toward BJ-TERT fibroblasts, dose response, cell-based, RAS-independent, luminescence (AID 1933); assay type: functional; settings: Homo sapiens
[13] = cytotoxicity in MIN6 insulinoma cells, dose response, cytotoxicity control, cell-based, mouse insulinoma (AID 2122); assay type: functional;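 also: confirmatory high-throughput counterscreen run to flag cytotoxic compounds; mouse MIN-6 beta cells carrying an insulin promoter eGFP reporter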
[14] = test system: BJ; test: cytotoxicity toward BJ-TERT-LT-ST fibroblasts, dose response, cell-based, RAS-independent, luminescence (AID 1935); assay type: functional; settings: Homo sapiens;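 also: BJ fibroblasts immortalized with TERT plus LT and ST oncogenes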
[15] = biological target: T2, Coagulation factor XII (Homo sapiens, UniProt P00748); assay type: functional;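 also: activated factor XIIa alpha cleaving a fluorogenic AMC peptide substrate; inhibitor potency from loss of enzyme activity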
T2 sequence (P00748 whole entry): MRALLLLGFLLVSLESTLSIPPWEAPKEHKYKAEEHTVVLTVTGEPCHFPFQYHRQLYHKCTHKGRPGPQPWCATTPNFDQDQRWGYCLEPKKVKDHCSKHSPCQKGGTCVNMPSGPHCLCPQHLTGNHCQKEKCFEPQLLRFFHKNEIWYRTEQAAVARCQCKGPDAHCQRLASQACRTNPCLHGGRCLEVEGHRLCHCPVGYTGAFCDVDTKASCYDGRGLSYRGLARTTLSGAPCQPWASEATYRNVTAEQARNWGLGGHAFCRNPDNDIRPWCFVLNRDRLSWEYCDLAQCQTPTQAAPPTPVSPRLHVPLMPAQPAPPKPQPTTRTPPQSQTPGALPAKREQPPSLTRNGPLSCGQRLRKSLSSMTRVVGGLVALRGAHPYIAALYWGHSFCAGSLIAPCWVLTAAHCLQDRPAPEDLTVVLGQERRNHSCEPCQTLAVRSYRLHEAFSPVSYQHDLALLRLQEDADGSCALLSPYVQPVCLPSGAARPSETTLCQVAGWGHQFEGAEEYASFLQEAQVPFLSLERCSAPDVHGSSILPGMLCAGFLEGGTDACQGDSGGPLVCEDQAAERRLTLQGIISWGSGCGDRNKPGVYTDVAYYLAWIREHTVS

[16] = test system: HEK293; test: inhibitors of LMP1-driven NF-kB reporter, dose response, cell-based, HEK293, luciferase, cherry-pick (AID 588343); assay type: functional; settings: Homo sapiens
[17] = biological target: T3, CAAX prenyl protease 2 (Saccharomyces cerevisiae S288c, UniProt Q03530); assay type: biochemical
T3 sequence (Q03530 whole entry): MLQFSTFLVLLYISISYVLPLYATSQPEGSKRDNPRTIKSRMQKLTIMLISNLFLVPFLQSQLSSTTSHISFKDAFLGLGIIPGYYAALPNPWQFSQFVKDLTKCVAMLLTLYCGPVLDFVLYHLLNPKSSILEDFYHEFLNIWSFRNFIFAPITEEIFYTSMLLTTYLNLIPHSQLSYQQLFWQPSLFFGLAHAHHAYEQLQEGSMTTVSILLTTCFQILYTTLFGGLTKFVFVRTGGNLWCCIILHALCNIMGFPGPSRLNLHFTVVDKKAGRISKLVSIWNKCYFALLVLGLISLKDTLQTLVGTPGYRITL

[18] = biological target: Trypsin (Sus scrofa, UniProt P00761); test: porcine trypsin inhibitors, dose response, selectivity assay for Rce1 protease inhibitor project, biochemical, quenched peptide fluorescence, cherry-pick (AID 488789)
Sequence of Trypsin (P00761 whole entry): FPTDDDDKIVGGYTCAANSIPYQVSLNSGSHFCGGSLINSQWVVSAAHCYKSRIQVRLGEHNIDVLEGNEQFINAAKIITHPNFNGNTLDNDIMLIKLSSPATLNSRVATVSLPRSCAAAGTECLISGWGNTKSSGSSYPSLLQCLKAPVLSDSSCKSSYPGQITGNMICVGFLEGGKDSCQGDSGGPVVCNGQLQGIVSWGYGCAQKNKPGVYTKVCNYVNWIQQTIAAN

[19] = biological target: T4, Hexokinase (Trypanosoma brucei, UniProt Q38C41); test: Confirmation assay for inhibitors of Trypanosoma brucei hexokinase 1-Analogue-first series. [Related pubchem assays (depositor defined):AID1430, AID1632, AID2516, AID2560, AID2579, AID2600, AID449725, AID492951]; assay type: functional
T4 sequence (Q38C41 whole entry): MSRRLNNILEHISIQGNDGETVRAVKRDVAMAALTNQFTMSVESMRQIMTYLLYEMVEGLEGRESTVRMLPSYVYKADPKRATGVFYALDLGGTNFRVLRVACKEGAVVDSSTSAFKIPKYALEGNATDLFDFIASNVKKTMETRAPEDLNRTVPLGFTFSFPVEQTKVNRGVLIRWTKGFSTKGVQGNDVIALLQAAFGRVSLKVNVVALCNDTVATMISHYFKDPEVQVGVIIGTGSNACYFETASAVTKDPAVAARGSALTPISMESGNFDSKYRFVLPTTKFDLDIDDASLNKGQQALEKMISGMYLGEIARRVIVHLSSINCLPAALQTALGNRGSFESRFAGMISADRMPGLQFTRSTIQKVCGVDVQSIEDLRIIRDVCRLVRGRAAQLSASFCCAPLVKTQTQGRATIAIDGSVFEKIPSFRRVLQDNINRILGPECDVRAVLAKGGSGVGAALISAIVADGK

[20] = biological target: Glyceraldehyde-3-phosphate dehydrogenase (Homo sapiens, UniProt P04406)
Sequence of Glyceraldehyde-3-phosphate dehydrogenase (P04406 whole entry): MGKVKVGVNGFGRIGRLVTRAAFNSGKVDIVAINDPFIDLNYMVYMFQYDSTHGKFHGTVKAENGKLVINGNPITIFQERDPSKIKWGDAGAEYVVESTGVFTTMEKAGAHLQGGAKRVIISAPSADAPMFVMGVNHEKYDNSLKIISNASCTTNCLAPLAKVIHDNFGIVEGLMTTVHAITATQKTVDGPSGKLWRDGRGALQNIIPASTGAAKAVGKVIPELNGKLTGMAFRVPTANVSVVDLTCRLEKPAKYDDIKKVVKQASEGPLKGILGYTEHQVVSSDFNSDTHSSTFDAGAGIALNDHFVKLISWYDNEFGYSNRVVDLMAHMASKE

[21] = biological target: T5, Alkaline phosphatase, tissue-nonspecific isozyme (Homo sapiens, UniProt P05186); test: human TNAP enzyme inhibitors, SAR follow-up, biochemical, luminescent, dose response (AID 1056)
T5 sequence (P05186 whole entry): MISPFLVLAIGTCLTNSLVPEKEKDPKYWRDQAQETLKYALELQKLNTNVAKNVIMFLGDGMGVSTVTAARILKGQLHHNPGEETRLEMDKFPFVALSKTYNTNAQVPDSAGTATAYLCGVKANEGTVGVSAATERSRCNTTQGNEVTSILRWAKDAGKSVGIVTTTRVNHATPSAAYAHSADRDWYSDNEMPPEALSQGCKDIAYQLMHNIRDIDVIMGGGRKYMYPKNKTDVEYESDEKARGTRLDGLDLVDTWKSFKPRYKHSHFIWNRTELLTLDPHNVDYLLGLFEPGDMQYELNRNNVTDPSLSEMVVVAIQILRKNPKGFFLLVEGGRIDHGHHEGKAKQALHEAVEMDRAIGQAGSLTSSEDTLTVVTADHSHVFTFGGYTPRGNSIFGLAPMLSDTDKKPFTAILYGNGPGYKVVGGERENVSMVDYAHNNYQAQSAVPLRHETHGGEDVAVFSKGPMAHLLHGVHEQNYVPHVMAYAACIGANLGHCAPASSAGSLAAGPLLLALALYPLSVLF

[22] = biological target: T6, Protein skinhead-1 (Caenorhabditis elegans, UniProt P34707); assay type: functional
T6 sequence (P34707 whole entry): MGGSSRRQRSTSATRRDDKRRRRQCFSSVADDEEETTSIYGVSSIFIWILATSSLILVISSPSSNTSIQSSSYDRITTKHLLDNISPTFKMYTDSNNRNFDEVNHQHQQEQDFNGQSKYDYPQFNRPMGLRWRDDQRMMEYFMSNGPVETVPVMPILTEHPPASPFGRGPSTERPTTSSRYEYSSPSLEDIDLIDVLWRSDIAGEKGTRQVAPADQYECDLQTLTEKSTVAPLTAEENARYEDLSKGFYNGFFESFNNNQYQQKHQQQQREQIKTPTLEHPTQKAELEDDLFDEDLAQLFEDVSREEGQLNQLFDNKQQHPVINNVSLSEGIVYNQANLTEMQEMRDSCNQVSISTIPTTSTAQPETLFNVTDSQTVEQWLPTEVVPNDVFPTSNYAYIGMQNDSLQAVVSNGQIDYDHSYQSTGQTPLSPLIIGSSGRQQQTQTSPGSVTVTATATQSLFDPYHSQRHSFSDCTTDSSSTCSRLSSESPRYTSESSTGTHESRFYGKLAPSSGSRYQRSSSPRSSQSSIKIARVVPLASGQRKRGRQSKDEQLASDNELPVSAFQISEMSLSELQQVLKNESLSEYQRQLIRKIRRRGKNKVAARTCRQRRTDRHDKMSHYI

[23] = biological target: Nonstructural protein 1 (Influenza A virus, UniProt Q194T2); assay type: functional, Influenza A virus (A/California/07/2009(H1N1))
Sequence of Nonstructural protein 1 (Q194T2 whole entry): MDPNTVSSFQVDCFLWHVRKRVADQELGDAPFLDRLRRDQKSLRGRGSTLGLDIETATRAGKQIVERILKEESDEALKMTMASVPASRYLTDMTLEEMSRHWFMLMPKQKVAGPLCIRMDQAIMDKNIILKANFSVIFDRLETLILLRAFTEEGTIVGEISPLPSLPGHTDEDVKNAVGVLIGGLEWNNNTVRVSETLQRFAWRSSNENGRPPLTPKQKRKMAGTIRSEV

[24] = biological target: Cytochrome P450 2C9 (Homo sapiens, UniProt P11712)
Sequence of Cytochrome P450 2C9 (P11712 whole entry): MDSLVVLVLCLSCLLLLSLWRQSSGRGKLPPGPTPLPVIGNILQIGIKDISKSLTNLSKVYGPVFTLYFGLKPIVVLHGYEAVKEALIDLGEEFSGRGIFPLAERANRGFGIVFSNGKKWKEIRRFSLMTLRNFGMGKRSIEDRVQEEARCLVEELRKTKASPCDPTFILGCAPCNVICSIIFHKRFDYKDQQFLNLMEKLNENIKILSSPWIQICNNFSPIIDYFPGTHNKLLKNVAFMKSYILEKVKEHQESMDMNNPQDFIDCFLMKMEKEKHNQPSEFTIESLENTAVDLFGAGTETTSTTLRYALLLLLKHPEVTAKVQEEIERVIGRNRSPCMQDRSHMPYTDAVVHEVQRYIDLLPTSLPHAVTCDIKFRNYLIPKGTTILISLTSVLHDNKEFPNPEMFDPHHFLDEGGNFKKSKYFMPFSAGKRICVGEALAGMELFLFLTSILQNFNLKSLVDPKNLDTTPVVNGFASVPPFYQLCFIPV

[25] = biological target: Cytochrome P450 2D6 (Homo sapiens, UniProt P10635);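 also: CYP2D6 member of a cytochrome P450 panel assay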
Sequence of Cytochrome P450 2D6 (P10635 whole entry): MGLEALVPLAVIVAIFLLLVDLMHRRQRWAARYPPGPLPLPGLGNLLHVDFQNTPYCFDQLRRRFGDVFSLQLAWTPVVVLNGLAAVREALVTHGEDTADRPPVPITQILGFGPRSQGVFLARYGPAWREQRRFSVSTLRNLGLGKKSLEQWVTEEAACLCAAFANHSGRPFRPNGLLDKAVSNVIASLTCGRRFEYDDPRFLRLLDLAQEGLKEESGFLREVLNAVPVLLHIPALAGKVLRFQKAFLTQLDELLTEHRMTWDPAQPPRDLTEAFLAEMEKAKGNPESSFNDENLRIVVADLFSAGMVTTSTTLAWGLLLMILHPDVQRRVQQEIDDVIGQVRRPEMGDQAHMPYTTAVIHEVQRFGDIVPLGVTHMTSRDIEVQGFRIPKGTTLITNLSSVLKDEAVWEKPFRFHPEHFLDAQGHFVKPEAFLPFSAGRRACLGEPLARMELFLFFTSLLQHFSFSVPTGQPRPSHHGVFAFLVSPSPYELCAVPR

[26] = biological target: Protein-tyrosine kinase 2-beta (Homo sapiens, UniProt Q14289);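 also: potency of inhibitors of PYK2 kinase phosphorylation of poly-GT substrate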
Sequence of Protein-tyrosine kinase 2-beta (Q14289 whole entry): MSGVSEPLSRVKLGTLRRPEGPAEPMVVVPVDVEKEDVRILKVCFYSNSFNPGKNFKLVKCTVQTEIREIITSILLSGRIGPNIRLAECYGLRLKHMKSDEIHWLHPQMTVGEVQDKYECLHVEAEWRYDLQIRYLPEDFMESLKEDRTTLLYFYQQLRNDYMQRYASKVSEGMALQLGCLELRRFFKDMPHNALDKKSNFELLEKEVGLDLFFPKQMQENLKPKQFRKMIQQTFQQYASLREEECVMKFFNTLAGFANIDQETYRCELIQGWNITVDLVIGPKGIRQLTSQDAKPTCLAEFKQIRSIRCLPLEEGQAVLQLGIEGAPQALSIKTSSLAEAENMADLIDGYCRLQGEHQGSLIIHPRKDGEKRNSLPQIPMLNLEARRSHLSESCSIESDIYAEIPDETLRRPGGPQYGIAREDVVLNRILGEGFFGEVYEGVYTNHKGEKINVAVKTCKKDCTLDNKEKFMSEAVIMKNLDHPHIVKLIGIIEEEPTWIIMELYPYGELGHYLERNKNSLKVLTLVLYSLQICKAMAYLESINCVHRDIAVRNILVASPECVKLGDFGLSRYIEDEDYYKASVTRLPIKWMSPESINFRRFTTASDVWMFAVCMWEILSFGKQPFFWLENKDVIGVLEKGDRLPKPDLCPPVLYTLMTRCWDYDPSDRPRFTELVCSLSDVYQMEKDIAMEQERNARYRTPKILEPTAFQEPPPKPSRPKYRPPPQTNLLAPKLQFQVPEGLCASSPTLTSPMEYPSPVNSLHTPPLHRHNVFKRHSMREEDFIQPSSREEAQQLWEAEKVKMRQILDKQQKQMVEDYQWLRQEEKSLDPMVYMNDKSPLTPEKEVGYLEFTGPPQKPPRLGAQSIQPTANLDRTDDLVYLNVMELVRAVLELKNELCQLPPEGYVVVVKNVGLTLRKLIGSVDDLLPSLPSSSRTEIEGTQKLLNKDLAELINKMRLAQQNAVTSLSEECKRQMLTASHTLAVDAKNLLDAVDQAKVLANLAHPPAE

Sequence of Beta-2 adrenergic receptor (P07550 whole entry): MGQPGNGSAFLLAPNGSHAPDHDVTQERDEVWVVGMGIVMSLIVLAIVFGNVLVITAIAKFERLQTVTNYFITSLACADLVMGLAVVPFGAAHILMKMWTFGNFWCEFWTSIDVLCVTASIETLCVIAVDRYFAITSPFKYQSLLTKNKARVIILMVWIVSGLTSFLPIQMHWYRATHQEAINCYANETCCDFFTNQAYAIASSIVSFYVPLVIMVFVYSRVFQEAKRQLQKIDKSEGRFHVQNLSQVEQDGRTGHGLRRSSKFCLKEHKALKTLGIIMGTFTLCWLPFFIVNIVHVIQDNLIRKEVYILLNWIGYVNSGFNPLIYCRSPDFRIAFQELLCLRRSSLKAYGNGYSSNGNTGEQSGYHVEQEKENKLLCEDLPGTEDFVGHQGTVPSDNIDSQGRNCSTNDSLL

For `O=C(COc1ccccc1F)N1c2ccccc2CCc2ccccc21`, the EC50 [1] was 1.6 µM (active).
In the case of `COc1ccccc1N1CCN(c2ccc([N+](=O)[O-])cc2Cl)CC1`, the EC50 [2] is reported as > 71.5 µM (inactive).
In the case of `O=C(Cc1nc2ccccc2s1)c1ccc(O)cc1O`, the EC50 [3] is reported as > 160 µM (inactive), the EC50 [4] is reported as > 180 µM (inactive) and the EC50 [5] is reported as 0.691 µM (active). For the same compound, the EC50 [6] was > 160 µM (inactive).
In the case of `O=C1NC(=O)N(Cc2ccc(F)cc2)C(=O)/C1=C/NNc1ccccc1`, the AC50 [7] is reported as 0.438 µM (active) and the EC50 [2] is reported as > 71.5 µM (inactive).
With `CCc1nc(C)cn1S(=O)(=O)c1cc([N+](=O)[O-])ccc1Cl` the IC50 [8] was 6.53 µM (active), the EC50 [9] was 7.62 µM (inconclusive) and the EC50 [10] was 4.81 µM (inconclusive). The IC50 [11] was 2.59 µM (active), the EC50 [12] was 8.45 µM (inconclusive) and the IC50 [13] was 2.53 µM (active). For the same compound, the EC50 [14] was 3.93 µM (active).
For `Cc1ccccc1N(C(=O)c1cccs1)c1nc2ccccc2s1`, the IC50 [8] was 1.52 µM (active).
For `Cc1ccsc1/C=N/NC(=O)c1ccc2c(c1)OCCO2`, the IC50 [15] was > 50 µM (inactive) and the AC50 [16] was 7.87 µM (active).
With `Cc1cc(C)n2cc(CSc3nncn3C)nc2n1` the AC50 [17] was 13.8 µM (active) and the AC50 [18] was 8.35 µM (active).
In the case of `O=c1c2c(Br)cccc2sn1-c1ccccc1`, the IC50 [19] is reported as 1.93 µM (active).
For `O=C(Nc1cc(Cl)ccc1C(=O)O)c1ccc(OC(F)(F)F)cc1`, the IC50 [19] was > 25 µM (inactive).
In the case of `COC(=O)c1cc(-c2ccc(Br)cc2)n[nH]1`, the IC50 [20] is reported as > 100 µM (not active), the IC50 [21] is reported as > 100 µM (inactive) and the IC50 [22] is reported as > 100 µM (inactive).
In the case of `CC1=NN(c2ccc(C)cc2)C(=O)/C1=C\C=C\c1ccccc1`, the IC50 [23] is reported as 21.1 µM (active).
With `O=c1c(-c2nnc(SCc3ccc(Cl)c(Cl)c3)o2)cccn1Cc1ccccc1` the AC50 [24] was 15.8 µM (inconclusive), the AC50 [25] was 28.2 µM (inconclusive) and the AC50 [17] was 11 µM (active).
In the case of `O=c1oc(-c2ccc(Br)o2)nc2ccccc12`, the IC50 [15] is reported as > 50 µM (inactive) and the IC50 [26] is reported as 2.66 µM (active).
With `NS(=O)(=O)c1ccc(NNC(=O)c2sccc2Cl)cc1` the IC50 [15] was > 50 µM (inactive).
In the case of `N#C/C(=C\c1ccc(N2CCOCC2)cc1)c1ccccc1`, the EC50 [3] is reported as > 150 µM (inactive), the EC50 [4] is reported as > 180 µM (inactive) and the EC50 [5] is reported as 0.49 µM (active). For the same compound, the EC50 [6] was 68.9 µM (active).
